# Data published in PubChem BioAssay AID256 (DTP/NCI, 2004).
# Inconclusive results and toxic doses are left out.
# System: CD2F1 mice, L1210 leukemia ip, survival T/C
# Test: NCI In Vivo Anticancer Drug Screen. Data for tumor model L1210 Leukemia (intraperitoneal) in CD2F1 (CDF1) mice
# Conditions: higher = longer survival
# Method in brief: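 Implant tumor; dose compound or vehicle; measure endpoint in both groups; report treated divided by control.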
# [1] = endpoint: mean survival time, dose: 25.0 mg/kg/injection, schedule: Q01DX009 (ip), vehicle: saline with Tween-80
# [2] = endpoint: mean survival time, dose: 50.0 mg/kg/injection, schedule: Q01DX009 (ip), vehicle: saline with Tween-80
# [3] = endpoint: mean survival time, dose: 100.0 mg/kg/injection, schedule: Q01DX009 (ip), vehicle: saline with Tween-80
# [4] = endpoint: mean survival time, dose: 100.0 mg/kg/injection, schedule: Q01DX001 (ip), vehicle: saline with Tween-80
# [5] = endpoint: mean survival time, dose: 100.0 mg/kg/injection, schedule: Q04DX003 (ip), vehicle: saline with Tween-80
# [6] = endpoint: mean survival time, dose: 200.0 mg/kg/injection, schedule: Q01DX009 (ip), vehicle: saline with Tween-80
# [7] = endpoint: mean survival time, dose: 200.0 mg/kg/injection, schedule: Q04DX003 (ip), vehicle: saline with Tween-80
# [8] = endpoint: mean survival time, dose: 400.0 mg/kg/injection, schedule: Q01DX009 (ip), vehicle: saline with Tween-80
# [9] = endpoint: mean survival time, dose: 400.0 mg/kg/injection, schedule: Q04DX003 (ip), vehicle: saline with Tween-80
smiles,measurement,setting,value
CC(=O)CSc1ncnc2nc[nH]c12,T/C,"endpoint: mean survival time, dose: 62.5 mg/kg/injection, schedule: Q01DX015 (ip), vehicle: saline",118 % of control
same,T/C,"endpoint: mean survival time, dose: 250.0 mg/kg/injection, schedule: Q01DX015 (ip), vehicle: saline",122 % of control
same,T/C,"endpoint: mean survival time, dose: 1000.0 mg/kg/injection, schedule: Q01DX015 (ip), vehicle: saline",150 % of control
ClC1(Cl)C2CCCCCCC21 (stereo not drawn),T/C,"endpoint: mean survival time, dose: 100.0 mg/kg/injection, schedule: Q01DX001 (ip), vehicle: saline sonified",95 % of control
same,T/C,"endpoint: mean survival time, dose: 100.0 mg/kg/injection, schedule: Q01DX009 (ip), vehicle: saline sonified",103 % of control
same,T/C,"endpoint: mean survival time, dose: 100.0 mg/kg/injection, schedule: Q04DX002 (ip), vehicle: saline with Tween-80",91 % of control
same,T/C,"endpoint: mean survival time, dose: 200.0 mg/kg/injection, schedule: Q01DX001 (ip), vehicle: saline sonified",105 % of control
same,T/C,"endpoint: mean survival time, dose: 200.0 mg/kg/injection, schedule: Q01DX009 (ip), vehicle: saline sonified",101 % of control
same,T/C,"endpoint: mean survival time, dose: 200.0 mg/kg/injection, schedule: Q04DX002 (ip), vehicle: saline with Tween-80",95 % of control
same,T/C,"endpoint: mean survival time, dose: 400.0 mg/kg/injection, schedule: Q01DX001 (ip), vehicle: saline sonified",100 % of control
same,T/C,"endpoint: mean survival time, dose: 400.0 mg/kg/injection, schedule: Q01DX009 (ip), vehicle: saline sonified",103 % of control
CC12CCCC=C1N(C=O)c1ccccc12 (stereo not drawn),T/C,"endpoint: mean survival time, dose: 100.0 mg/kg/injection, schedule: Q01DX001 (ip), vehicle: saline",95 % of control
same,T/C,"endpoint: mean survival time, dose: 200.0 mg/kg/injection, schedule: Q01DX001 (ip), vehicle: saline",100 % of control
same,T/C,"endpoint: mean survival time, dose: 400.0 mg/kg/injection, schedule: Q01DX001 (ip), vehicle: saline",95 % of control
CC(=O)OCC1OC(n2ccc(O)cc2=O)C(OC(C)=O)C1OC(C)=O (stereo not drawn),T/C,"endpoint: median survival time, dose: 44.0 mg/kg/injection, schedule: Q01DX009 (ip), vehicle: saline + alcohol",154 % of control
same,T/C,"endpoint: median survival time, dose: 67.0 mg/kg/injection, schedule: Q01DX009 (ip), vehicle: saline + alcohol",164 % of control
same,T/C,"endpoint: median survival time, dose: 100.0 mg/kg/injection, schedule: Q01DX009 (ip), vehicle: saline + alcohol",174 % of control
same,T/C,"endpoint: median survival time, dose: 150.0 mg/kg/injection, schedule: Q01DX009 (ip), vehicle: saline + alcohol",165 % of control
NC(CO)C(O)c1ccc(N=Nc2ccc(O)cc2)cc1 (stereo not drawn),T/C,[1],100 % of control
same,T/C,[2],104 % of control
same,T/C,[3],94 % of control
CC(=O)OC1CCC2C3CCC4=C(Cl)C(=O)CCC4C3CCC12C (stereo not drawn),T/C,"endpoint: mean survival time, dose: 100.0 mg/kg/injection, schedule: Q04DX003 (sc), vehicle: steriod suspending solution",98 % of control
same,T/C,"endpoint: mean survival time, dose: 200.0 mg/kg/injection, schedule: Q04DX003 (sc), vehicle: steriod suspending solution",97 % of control
same,T/C,"endpoint: mean survival time, dose: 400.0 mg/kg/injection, schedule: Q04DX003 (sc), vehicle: steriod suspending solution",106 % of control
O=c1[nH]c(SCc2ccccc2)nc(-c2ccc(Cl)cc2)c1CCO,T/C,"endpoint: mean survival time, dose: 100.0 mg/kg/injection, schedule: Q01DX009 (ip), vehicle: Klucel (hydroxypropylcellulose) (HPC)",87 % of control
same,T/C,"endpoint: mean survival time, dose: 200.0 mg/kg/injection, schedule: Q01DX009 (ip), vehicle: Klucel (hydroxypropylcellulose) (HPC)",89 % of control
same,T/C,"endpoint: mean survival time, dose: 400.0 mg/kg/injection, schedule: Q01DX009 (ip), vehicle: Klucel (hydroxypropylcellulose) (HPC)",88 % of control
NC(N)=NCCCCC(N)C(=O)O (stereo not drawn),T/C,"endpoint: mean survival time, dose: 100.0 mg/kg/injection, schedule: Q01DX009 (ip), vehicle: acetone",101 % of control
same,T/C,"endpoint: mean survival time, dose: 100.0 mg/kg/injection, schedule: Q01DX009 (ip), vehicle: saline",95 % of control
same,T/C,"endpoint: mean survival time, dose: 100.0 mg/kg/injection, schedule: Q04DX003 (ip), vehicle: saline",97 % of control
same,T/C,"endpoint: mean survival time, dose: 200.0 mg/kg/injection, schedule: Q01DX009 (ip), vehicle: acetone",96 % of control
same,T/C,"endpoint: mean survival time, dose: 200.0 mg/kg/injection, schedule: Q01DX009 (ip), vehicle: saline",95 % of control
same,T/C,"endpoint: mean survival time, dose: 200.0 mg/kg/injection, schedule: Q04DX003 (ip), vehicle: saline",100 % of control
same,T/C,"endpoint: mean survival time, dose: 400.0 mg/kg/injection, schedule: Q01DX009 (ip), vehicle: acetone",98 % of control
same,T/C,"endpoint: mean survival time, dose: 400.0 mg/kg/injection, schedule: Q01DX009 (ip), vehicle: saline",95 % of control
same,T/C,"endpoint: mean survival time, dose: 400.0 mg/kg/injection, schedule: Q04DX003 (ip), vehicle: saline",103 % of control
O=C1/C(=C\c2ccccc2)Oc2cc(O)c(O)cc21,T/C,"endpoint: mean survival time, dose: 25.0 mg/kg/injection, schedule: Q01DX001 (ip), vehicle: saline with Tween-80",100 % of control
same,T/C,"endpoint: mean survival time, dose: 50.0 mg/kg/injection, schedule: Q01DX001 (ip), vehicle: saline with Tween-80",104 % of control
same,T/C,[4],100 % of control
CN(C)CCC(=O)c1cccc2ccccc12,T/C,[1],98 % of control
same,T/C,[2],96 % of control
same,T/C,[4],92 % of control
same,T/C,[3],96 % of control
CCOC(=O)c1sc(N)c(C(=O)OCC)c1C,T/C,[3],98 % of control
same,T/C,[5],95 % of control
same,T/C,[6],93 % of control
same,T/C,[7],95 % of control
same,T/C,[8],91 % of control
same,T/C,[9],101 % of control
COc1ccc(Nc2nc(N)nc3c2ncn3C2OC(CO)C(O)C2O)cc1 (stereo not drawn),T/C,"endpoint: mean survival time, dose: 12.5 mg/kg/injection, schedule: Q01DX005 (ip), vehicle: distilled water + Tween-80",96 % of control
same,T/C,"endpoint: mean survival time, dose: 25.0 mg/kg/injection, schedule: Q01DX005 (ip), vehicle: distilled water + Tween-80",98 % of control
same,T/C,"endpoint: mean survival time, dose: 50.0 mg/kg/injection, schedule: Q01DX005 (ip), vehicle: distilled water + Tween-80",104 % of control
same,T/C,"endpoint: mean survival time, dose: 100.0 mg/kg/injection, schedule: Q01DX005 (ip), vehicle: distilled water + Tween-80",111 % of control
CC(=O)CC(=O)c1ccccc1.CC(=O)CC(=O)c1ccccc1.CC(=O)CC(=O)c1ccccc1.[Tb],T/C,[5],93 % of control
same,T/C,[7],91 % of control
same,T/C,[9],88 % of control
O=[N+]([O-])c1ccc(NCc2ccccc2)c([N+](=O)[O-])c1,T/C,"endpoint: mean survival time, dose: 100.0 mg/kg/injection, schedule: Q04DX003 (ip), vehicle: gum acacia",98 % of control
same,T/C,"endpoint: mean survival time, dose: 200.0 mg/kg/injection, schedule: Q04DX003 (ip), vehicle: gum acacia",106 % of control
same,T/C,"endpoint: mean survival time, dose: 400.0 mg/kg/injection, schedule: Q04DX003 (ip), vehicle: gum acacia",102 % of control
COc1cc(NCCCCN2C(=O)c3ccccc3C2=O)c2ncccc2c1,T/C,[5],97 % of control
same,T/C,[7],102 % of control
same,T/C,[9],96 % of control
CCN(CC)CCNc1cc2c3ccccc3ccc2c2ccccc12,T/C,[4],88 % of control
same,T/C,"endpoint: mean survival time, dose: 200.0 mg/kg/injection, schedule: Q01DX001 (ip), vehicle: saline with Tween-80",95 % of control
same,T/C,"endpoint: mean survival time, dose: 400.0 mg/kg/injection, schedule: Q01DX001 (ip), vehicle: saline with Tween-80",100 % of control
NCC[Se][Se]CCN,T/C,"endpoint: median survival time, dose: 1.56 mg/kg/injection, schedule: Q01DX009 (ip), vehicle: suspension in saline",98 % of control
same,T/C,"endpoint: median survival time, dose: 3.13 mg/kg/injection, schedule: Q01DX009 (ip), vehicle: suspension in saline",105 % of control
same,T/C,"endpoint: median survival time, dose: 6.25 mg/kg/injection, schedule: Q01DX009 (ip), vehicle: suspension in saline",108 % of control
COC(CCC#N)c1ccc(Cl)cc1 (stereo not drawn),T/C,[3],95 % of control
same,T/C,[5],97 % of control
same,T/C,[6],101 % of control
same,T/C,[7],102 % of control
same,T/C,[8],96 % of control
same,T/C,[9],98 % of control
Nc1ccccc1C1=Nc2cncnc2NC1,T/C,"endpoint: mean survival time, dose: 75.0 mg/kg/injection, schedule: Q01DX001 (ip), vehicle: saline",104 % of control
same,T/C,"endpoint: mean survival time, dose: 150.0 mg/kg/injection, schedule: Q01DX001 (ip), vehicle: saline",102 % of control
same,T/C,"endpoint: mean survival time, dose: 300.0 mg/kg/injection, schedule: Q01DX001 (ip), vehicle: saline",93 % of control
Cc1cn(C2CC(OP(=O)(O)OCC3OC(n4ccc(N)nc4=O)C(O)C3O)C(CO)O2)c(=O)[nH]c1=O (stereo not drawn),T/C,"endpoint: median survival time, dose: 5.0 mg/kg/injection, schedule: Q01DX005 (ip), vehicle: saline",107 % of control
same,T/C,"endpoint: median survival time, dose: 10.0 mg/kg/injection, schedule: Q01DX005 (ip), vehicle: saline",117 % of control
same,T/C,"endpoint: median survival time, dose: 25.0 mg/kg/injection, schedule: Q01DX005 (ip), vehicle: saline",122 % of control
BrC1=CC2C3C=CC(c4ccccc43)C12 (stereo not drawn),T/C,[5],95 % of control
same,T/C,[7],95 % of control
same,T/C,[9],96 % of control
CC1C(=O)CC(C)(C)C=CC1C1C=CC(C)(C)CC(=O)C1C (stereo not drawn),T/C,"endpoint: mean survival time, dose: 75.0 mg/kg/injection, schedule: Q01DX001 (ip), vehicle: other",97 % of control
same,T/C,"endpoint: mean survival time, dose: 150.0 mg/kg/injection, schedule: Q01DX001 (ip), vehicle: other",97 % of control
same,T/C,"endpoint: mean survival time, dose: 300.0 mg/kg/injection, schedule: Q01DX001 (ip), vehicle: other",96 % of control
CCOC(=O)N1C(C(=O)c2ccc(C)cc2)N(C2CCCCC2)C(c2ccccc2)N1C(=O)OCC (stereo not drawn),T/C,[3],90 % of control
same,T/C,[5],97 % of control
same,T/C,[6],93 % of control
same,T/C,[7],92 % of control
same,T/C,[8],90 % of control
same,T/C,[9],93 % of control
CC(=O)C1CCC2c3cc4c(c(C)c3CCC12C)CCC(OC(=O)C1CCCCC1)C4 (stereo not drawn),T/C,[5],101 % of control
same,T/C,[7],101 % of control
same,T/C,[9],104 % of control
CN(C)CCCN1c2ccc(O)cc2Sc2ccc(Cl)cc21,T/C,[1],90 % of control
same,T/C,[2],96 % of control
same,T/C,[3],107 % of control
